Columns and labels:
[1] = biological target: KRAS WT (Homo sapiens (Human), UniProt P01116); assay: KRAS WT Biochemical Assay, BODIPY-GDP Exchange TR-FRET (Example 502; 0.06 nM KRAS WT, 15 nM GDP, 300 nM SOS1, 120-minute incubation); details: read-out: KRas HTRF IC50
How it was run: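 Biotin-tagged recombinant KRAS WT (0.06 nM) preloaded with 15 nM GDP and Tb-streptavidin, 10 min RT, then exchange started with 300 nM SOS1 plus 300 nM BODIPY-GDP in HEPES pH 7.5 buffer with MgCl2. TR-FRET 520/490 ratio read after 120 min; normalized to DMSO and full-inhibition control; IC50 from 4-parameter fit.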

[2] = biological target: KRAS G12D (Homo sapiens (Human), UniProt P01116, G12D); assay: KRAS G12D LoEnz Biochemical Assay, BODIPY-GDP Exchange TR-FRET (SOS1-mediated nucleotide exchange); details: read-out: KRas (G12D) GDP HTRF IC50
Sequence of KRAS G12D (P01116-2 other isoform, or with tags, fused parts or gaps G12D): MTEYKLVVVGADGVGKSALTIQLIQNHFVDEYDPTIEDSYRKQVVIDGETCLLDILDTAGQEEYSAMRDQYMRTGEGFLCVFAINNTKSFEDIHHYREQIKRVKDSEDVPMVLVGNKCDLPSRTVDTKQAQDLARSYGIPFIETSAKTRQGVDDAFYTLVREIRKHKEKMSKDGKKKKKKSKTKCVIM

Sequence of KRAS WT (P01116-2 other isoform, or with tags, fused parts or gaps): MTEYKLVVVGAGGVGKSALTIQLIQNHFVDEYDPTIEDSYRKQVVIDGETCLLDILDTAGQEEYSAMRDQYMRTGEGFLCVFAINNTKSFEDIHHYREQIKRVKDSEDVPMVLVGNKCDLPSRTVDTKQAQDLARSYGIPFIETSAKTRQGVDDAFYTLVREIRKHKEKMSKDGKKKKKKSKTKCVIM

Row | SMILES | IC50 [1] | IC50 [2]
1 | Cc1c(F)c(N)cc(-c2nc3c4c(nc(OC[C@@]56CCCN5C[C@H](F)C6)nc4c2F)N2C[C@H]4CC[C@H](N4)[C@H]2CO3)c1C(F)(F)F [Compound 61, 2-Fluoro-5-((5aS,6S,9R)-1-fluoro-12-(((2R,7aS)-2-fluorotetrahydro-1H-pyrrolizin-7a(5H)-yl)methoxy)-5a,6,7,8,9,10-hexahydro-5H-4-oxa-3,10a,11,13,14-pentaaza-6,9-methanonaphtho[1,8-ab]heptalen-2-yl)-3-methyl-4-(trifluoromethyl)aniline] | 30.5 nM | 0.21 nM
2 | C[C@@H]1Oc2nc(-c3cc(N)cc(F)c3C(F)(F)F)c(F)c3nc(OCC4CCC5N4CCOC5(C)C)nc(c23)N2C[C@H]3CC[C@H](N3)[C@@H]12 (stereo partly drawn) [Compound 157, 3-((5S,5aS,6S,9R)-12-((1,1-Dimethylhexahydro-1H-pyrrolo[2,1-c][1,4]oxazin-6-yl)methoxy)-1-fluoro-5-methyl-5a,6,7,8,9,10-hexahydro-5H-4-oxa-3,10a,11,13,14-pentaaza-6,9-methanonaphtho[1,8-ab]heptalen-2-yl)-5-fluoro-4-(trifluoromethyl)aniline] | 45.6 nM | 0.55 nM
3 | Cc1c(F)c(N)cc(-c2nc3c4c(nc(OC[C@@]56CCCN5CC5(CC5(F)F)C6)nc4c2F)N2C[C@H]4CC[C@H](N4)[C@H]2[C@H](C)O3)c1C(F)(F)F (stereo partly drawn) [Compound 62, 5-((5S,5aS,6S,9R)-12-(((7a'S)-2,2-Difluorodihydro-1′H,3′H-spiro[cyclopropane-1,2′-pyrrolizin]-7a′(5′H)-yl)methoxy)-1-fluoro-5-methyl-5a,6,7,8,9,10-hexahydro-5H-4-oxa-3,10a,11,13,14-pentaaza[6,9]methanonaphtho[1,8-ab]heptalen-2-yl)-2-fluoro-3-methyl-4-(trifluoromethyl)aniline] | 0.29 nM | 0.083 nM
4 | Cc1c(F)c(N)cc(-c2nc3c4c(nc(OC[C@@H]5[C@@H]6CCN5CCO6)nc4c2F)N2C[C@H]4CC[C@H](N4)[C@H]2[C@H](C)O3)c1C(F)(F)F [Compound 136, 5-((5S,5aS,6S,9R)-12-(((5S,8R)-4-Oxa-1-azabicyclo[3.2.1]octan-8-yl)methoxy)-1-fluoro-5-methyl-5a,6,7,8,9,10-hexahydro-5H-4-oxa-3,10a,11,13,14-pentaaza-6,9-methanonaphtho[1,8-ab]heptalen-2-yl)-2-fluoro-3-methyl-4-(trifluoromethyl)aniline] | 90.8 nM | 0.38 nM
5 | Cc1c(F)c(N)cc(-c2nc3c4c(nc(OC[C@@H]5CCC6CC(F)(F)CCN65)nc4c2F)N2C[C@H]4CC[C@H](N4)[C@H]2[C@H](C)O3)c1C(F)(F)F (single isomer, unassigned) [119 (isomer 2)] | 75 nM | 0.37 nM
6 | Cc1c(F)c(N)cc(-c2nc3c4c(nc(OCC5(CN6CCO[C@@H](CF)C6)CC5)nc4c2F)N2C[C@H]4CC[C@H](N4)[C@H]2[C@H](C)O3)c1C(F)(F)F [Compound 172, 2-Fluoro-5-((5S,5aS,6S,9R)-1-fluoro-12-((1-(((R)-2-(fluoromethyl)morpholino)methyl)cyclopropyl)methoxy)-5-methyl-5a,6,7,8,9,10-hexahydro-5H-4-oxa-3,10a,11,13,14-pentaaza-6,9-methanonaphtho[1,8-ab]heptalen-2-yl)-3-methyl-4-(trifluoromethyl)aniline] | 11.1 nM | 0.24 nM
7 | Cc1c(F)c(N)cc(-c2nc3c4c(nc(OCC5(CN6CCO[C@H](C)C6)CC5)nc4c2F)N2C[C@H]4CC[C@H](N4)[C@H]2[C@H](C)O3)c1C(F)(F)F [Compound 168, 2-Fluoro-5-((5S,5aS,6S,9R)-1-fluoro-5-methyl-12-((1-(((R)-2-methylmorpholino)methyl)cyclopropyl)methoxy)-5a,6,7,8,9,10-hexahydro-5H-4-oxa-3,10a,11,13,14-pentaaza-6,9-methanonaphtho[1,8-ab]heptalen-2-yl)-3-methyl-4-(trifluoromethyl)aniline] | 1.68 nM | 0.12 nM
8 | C[C@@H]1Oc2nc(-c3cc(N)cc(F)c3C(F)(F)F)c(F)c3nc(OC[C@@H]4CC[C@H]5COCCN54)nc(c23)N2C[C@H]3CC[C@H](N3)[C@@H]12 [Compound 77, 3-Fluoro-5-((5S,5aS,6S,9R)-1-fluoro-12-(((6S,8aS)-hexahydro-1H-pyrrolo[2,1-c][1,4]oxazin-6-yl)methoxy)-5-methyl-5a,6,7,8,9,10-hexahydro-5H-4-oxa-3,10a,11,13,14-pentaaza-6,9-methanonaphtho[1,8-ab]heptalen-2-yl)-4-(trifluoromethyl)aniline] | 21.1 nM | 0.24 nM
9 | Cc1c(F)c(N)cc(-c2nc3c4c(nc(OC[C@@H]5CC[C@@H]6CC(F)(F)CCN65)nc4c2F)N2C[C@H]4CC[C@H](N4)[C@H]2[C@H](C)O3)c1C(F)(F)F (single isomer, unassigned) [119 (isomer 1)] | 787 nM | 4.38 nM
10 | Cc1c(F)c(N)cc(-c2nc3c4c(nc(OC[C@@]56CCCN5C[C@H](F)C6)nc4c2F)N2C[C@H]4CC[C@H](N4)[C@H]2[C@H](C)O3)c1Cl [Compound 76, 4-Chloro-2-fluoro-5-((5S,5aS,6S,9R)-1-fluoro-12-(((2R,7aS)-2-fluorotetrahydro-1H-pyrrolizin-7a(5H)-yl)methoxy)-5-methyl-5a,6,7,8,9,10-hexahydro-5H-4-oxa-3,10a,11,13,14-pentaaza-6,9-methanonaphtho[1,8-ab]heptalen-2-yl)-3-methylaniline] | 14.3 nM | 0.13 nM
11 | C[C@@H]1Oc2nc(-c3cc(N)c(F)c(Cl)c3C(F)(F)F)c(F)c3nc(OC[C@@]45CCCN4C[C@H](F)C5)nc(c23)N2C[C@H]3CC[C@H](N3)[C@@H]12 [Compound 104, 3-Chloro-2-fluoro-5-((5S,5aS,6S,9R)-1-fluoro-12-(((2R,7aS)-2-fluorotetrahydro-1H-pyrrolizin-7a(5H)-yl)methoxy)-5-methyl-5a,6,7,8,9,10-hexahydro-5H-4-oxa-3,10a,11,13,14-pentaaza-6,9-methanonaphtho[1,8-ab]heptalen-2-yl)-4-(trifluoromethyl)aniline] | 0.71 nM | 0.05 nM
12 | Cc1c(F)c(N)cc(-c2nc3c4c(nc(OC[C@@H]5CC[C@@H]6C[C@@H](F)CN65)nc4c2F)N2C[C@H]4CC[C@H](N4)[C@H]2[C@H](C)O3)c1C(F)(F)F (single isomer, unassigned) [152 (isomer 2)] | 526 nM | 3.23 nM
13 | C[C@@H]1Oc2nc(-c3cc(O)cc4ccc(F)c(F)c34)c(F)c3nc(OC[C@@]45CCCN4C[C@H](F)C5)nc(c23)N2C[C@H]3CC[C@H](N3)[C@@H]12 [Compound 82, 5,6-Difluoro-4-((5S,5aS,6S,9aR)-1-fluoro-12-(((2R,7aS)-2-fluorotetrahydro-1H-pyrrolizin-7a(5H)-yl)methoxy)-5-methyl-5a,6,7,8,9,10-hexahydro-5H-4-oxa-3,10a,11,13,14-pentaaza-6,9-methanonaphtho[1,8-ab]heptalen-2-yl)naphthalen-2-ol] | 23500 nM | 360 nM
14 | Cc1c(F)c(N)cc(-c2nc3c4c(nc(OC[C@@H]5CC[C@H]6COCCN65)nc4c2F)N2C[C@H]4CC[C@H](N4)[C@H]2[C@H](C)O3)c1CC(F)(F)F [Compound 113, 2-fluoro-5-((5S,5aS,6S,9R)-1-fluoro-12-(((6S,8aS)-hexahydro-1H-pyrrolo[2,1-c][1,4]oxazin-6-yl)methoxy)-5-methyl-5a,6,7,8,9,10-hexahydro-5H-4-oxa-3,10a,11,13,14-pentaaza-6,9-methanonaphtho[1,8-ab]heptalen-2-yl)-3-methyl-4-(2,2,2-trifluoroethyl)aniline] | 65.6 nM | 0.31 nM
15 | C[C@@H]1Oc2nc(-c3cc(N)c(F)cc3C(F)(F)F)c(F)c3nc(OC[C@@H]4CC[C@H]5COCCN54)nc(c23)N2C[C@H]3CC[C@H](N3)[C@@H]12 [Compound 70, 2-Fluoro-5-((5S,5aS,6S,9R)-1-fluoro-12-(((6S,8aS)-hexahydro-1H-pyrrolo[2,1-c][1,4]oxazin-6-yl)methoxy)-5-methyl-5a,6,7,8,9,10-hexahydro-5H-4-oxa-3,10a,11,13,14-pentaaza-6,9-methanonaphtho[1,8-ab]heptalen-2-yl)-4-(trifluoromethyl)aniline] | 169 nM | 0.71 nM
16 | Cc1c(F)c(N)cc(-c2nc3c4c(nc(OC[C@H]5[C@H](C#N)CCN5C)nc4c2F)N2C[C@H]4CC[C@H](N4)[C@H]2[C@H](C)O3)c1C(F)(F)F [Compound 161, (2R,3R)-2-((((5S,5aS,6S,9R)-2-(5-Amino-4° fluoro-3-methyl-2-(trifluoromethylo)henyl)-1-fluoro-5-methyl-5a,6,7,8,9,10-hexahydro-5H-4-oxa-3,10a,11,13,14-pentaaza-6,9-methanonaphtho[1,8-ab]heptalen-12-yl)oxy)methyl)-1-methylpyrrolidine-3-carbonitrile] | 1330 nM | 7.61 nM
17 | Cc1c(F)c(N)cc(-c2nc3c4c(nc(OC[C@]56C[C@H](F)CN5C[C@H](F)C6)nc4c2F)N2C[C@H]4CC[C@H](N4)[C@H]2[C@H](C)O3)c1C(F)(F)F [Compound 141, 5-((5S,5aS,6S,9R)-12-(((2R,6S,7ar)-2,6-Difluorotetrahydro-1H-pyrrolizin-7a(5H)-yl)methoxy)-1-fluoro-5-methyl-5a,6,7,8,9,10-hexahydro-5H-4-oxa-3,10a,11,13,14-pentaaza-6,9-methanonaphtho[1,8-ab]heptalen-2-yl)-2-fluoro-3-methyl-4-(trifluoromethyl)aniline] | 85 nM | 0.26 nM
18 | C=C1CN2CCC[C@@]2(COc2nc3c4c(nc(-c5cc(N)c(F)c(C)c5C(F)(F)F)c(F)c4n2)O[C@@H](C)[C@@H]2[C@@H]4CC[C@H](CN32)N4)C1 [Compound 57, 2-Fluoro-5-((5S,5aS,6S,9R)-1-fluoro-5-methyl-12-(((S)-2-methylenetetrahydro-1H-pyrrolizin-7a(5H)-yl)methoxy)-5a,6,7,8,9,10-hexahydro-5H-4-oxa-3,10a,11,13,14-pentaaza-6,9-methanonaphtho[1,8-ab]heptalen-2-yl)-3-methyl-4-(trifluoromethyl) aniline] | 0.633 nM | 0.16 nM
